Test results: PubChem BioAssay AID2060508 (Molecular Pharmacology Branch, DTP, NCI, 2025)

What follows are compounds tested on 454973-116-R2-J3-PDC spheroids, viability, % test/control (assay: Anticancer human tumor 454973-116-R2-J3-PDC patient-derived pancreatic carcinoma cell line growth inhibition [GQUAD]). Conditions: second compound 0.1 µM; first compound 1 µM; stronger effect = lower value; spheroids with HUVEC and MSC.
In short: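 Viability of tumor cells grown as complex spheroids with endothelial and stromal cells, exposed to drug combinations. Top concentration at or near clinical Cmax (else 10 microM), diluted in half-log increments.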
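Note: spheroids exposed to compounds for seven days; 100% = DMSO vehicle control viability.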

| Structure (SMILES) | viability, T/C [%] |
| --- | --- |
| COc1ncnc(C2CC2)c1-c1ncc2cnn(Cc3ccc(-c4nc(C(F)(F)F)cn4C(C)C)cc3)c2n1 + Cc1[nH]c2ccc(F)cc2c1-c1nc2c3cccnc3c3ncccc3c2[nH]1 | 105 |
| CC(C)n1c(=O)n(C)c2cnc3cc(F)c(-c4ccc(OCCCN5CCCCC5)nc4)cc3c21 + Cc1cnc(CNC(=O)c2c(=O)c3ccc(N4CCCN(C)CC4)nc3n3c2sc2ccccc23)cn1 | 33.6 |
| CC1COCCN1c1cc(-c2ccnn2C)c2ccnc(-c3ccn[nH]3)c2n1 (configuration not stated) + Cc1cnc(CNC(=O)c2c(=O)c3ccc(N4CCCN(C)CC4)nc3n3c2sc2ccccc23)cn1 | 14.7 |
| CC1COCCN1c1cc(C2(S(C)(=N)=O)CC2)nc(-c2ccnc3[nH]ccc23)n1 (configuration not stated) + Cc1cnc(CNC(=O)c2c(=O)c3ccc(N4CCCN(C)CC4)nc3n3c2sc2ccccc23)cn1 | 58.9 |

Same assay, conditions: second compound 0.1 µM; first compound 3.16 µM; stronger effect = lower value; spheroids with HUVEC and MSC

| Structure (SMILES) | viability, T/C [%] |
| --- | --- |
| COc1ncnc(C2CC2)c1-c1ncc2cnn(Cc3ccc(-c4nc(C(F)(F)F)cn4C(C)C)cc3)c2n1 + Cc1[nH]c2ccc(F)cc2c1-c1nc2c3cccnc3c3ncccc3c2[nH]1 | 92.9 |
| CC(C)n1c(=O)n(C)c2cnc3cc(F)c(-c4ccc(OCCCN5CCCCC5)nc4)cc3c21 + Cc1cnc(CNC(=O)c2c(=O)c3ccc(N4CCCN(C)CC4)nc3n3c2sc2ccccc23)cn1 | 39.5 |
| CC1COCCN1c1cc(-c2ccnn2C)c2ccnc(-c3ccn[nH]3)c2n1 (configuration not stated) + Cc1cnc(CNC(=O)c2c(=O)c3ccc(N4CCCN(C)CC4)nc3n3c2sc2ccccc23)cn1 | 18.3 |
| CC1COCCN1c1cc(C2(S(C)(=N)=O)CC2)nc(-c2ccnc3[nH]ccc23)n1 (configuration not stated) + Cc1cnc(CNC(=O)c2c(=O)c3ccc(N4CCCN(C)CC4)nc3n3c2sc2ccccc23)cn1 | 33 |

Same assay, conditions: second compound 0.1 µM; first compound 10 µM; stronger effect = lower value; spheroids with HUVEC and MSC

| Structure (SMILES) | viability, T/C [%] |
| --- | --- |
| COc1ncnc(C2CC2)c1-c1ncc2cnn(Cc3ccc(-c4nc(C(F)(F)F)cn4C(C)C)cc3)c2n1 + Cc1[nH]c2ccc(F)cc2c1-c1nc2c3cccnc3c3ncccc3c2[nH]1 | 100 |
| CC(C)n1c(=O)n(C)c2cnc3cc(F)c(-c4ccc(OCCCN5CCCCC5)nc4)cc3c21 + Cc1cnc(CNC(=O)c2c(=O)c3ccc(N4CCCN(C)CC4)nc3n3c2sc2ccccc23)cn1 | 32.7 |
| CC1COCCN1c1cc(-c2ccnn2C)c2ccnc(-c3ccn[nH]3)c2n1 (configuration not stated) + Cc1cnc(CNC(=O)c2c(=O)c3ccc(N4CCCN(C)CC4)nc3n3c2sc2ccccc23)cn1 | 23.3 |
| CC1COCCN1c1cc(C2(S(C)(=N)=O)CC2)nc(-c2ccnc3[nH]ccc23)n1 (configuration not stated) + Cc1cnc(CNC(=O)c2c(=O)c3ccc(N4CCCN(C)CC4)nc3n3c2sc2ccccc23)cn1 | 23.5 |

Same assay, conditions: second compound 0.316 µM; first compound 0.000999 µM; stronger effect = lower value; spheroids with HUVEC and MSC

| Structure (SMILES) | viability, T/C [%] |
| --- | --- |
| Cn1ncnc1[C@H]1c2n[nH]c(=O)c3cc(F)cc(c23)N[C@@H]1c1ccc(F)cc1 + Cc1cnc(CNC(=O)c2c(=O)c3ccc(N4CCCN(C)CC4)nc3n3c2sc2ccccc23)cn1 | 75.8 |

Same assay, conditions: second compound 0.316 µM; first compound 0.00316 µM; stronger effect = lower value; spheroids with HUVEC and MSC

| Structure (SMILES) | viability, T/C [%] |
| --- | --- |
| Cn1ncnc1[C@H]1c2n[nH]c(=O)c3cc(F)cc(c23)N[C@@H]1c1ccc(F)cc1 + Cc1cnc(CNC(=O)c2c(=O)c3ccc(N4CCCN(C)CC4)nc3n3c2sc2ccccc23)cn1 | 70.3 |

Same assay, conditions: second compound 0.316 µM; first compound 0.00999 µM; stronger effect = lower value; spheroids with HUVEC and MSC

| Structure (SMILES) | viability, T/C [%] |
| --- | --- |
| Cn1ncnc1[C@H]1c2n[nH]c(=O)c3cc(F)cc(c23)N[C@@H]1c1ccc(F)cc1 + Cc1cnc(CNC(=O)c2c(=O)c3ccc(N4CCCN(C)CC4)nc3n3c2sc2ccccc23)cn1 | 65.3 |

Same assay, conditions: second compound 0.316 µM; first compound 0.0316 µM; stronger effect = lower value; spheroids with HUVEC and MSC

| Structure (SMILES) | viability, T/C [%] |
| --- | --- |
| COc1ncnc(C2CC2)c1-c1ncc2cnn(Cc3ccc(-c4nc(C(F)(F)F)cn4C(C)C)cc3)c2n1 + Cc1[nH]c2ccc(F)cc2c1-c1nc2c3cccnc3c3ncccc3c2[nH]1 | 109 |
| CC(C)n1c(=O)n(C)c2cnc3cc(F)c(-c4ccc(OCCCN5CCCCC5)nc4)cc3c21 + Cc1cnc(CNC(=O)c2c(=O)c3ccc(N4CCCN(C)CC4)nc3n3c2sc2ccccc23)cn1 | 45.5 |
| CC1COCCN1c1cc(-c2ccnn2C)c2ccnc(-c3ccn[nH]3)c2n1 (configuration not stated) + Cc1cnc(CNC(=O)c2c(=O)c3ccc(N4CCCN(C)CC4)nc3n3c2sc2ccccc23)cn1 | 33.7 |
| CC1COCCN1c1cc(C2(S(C)(=N)=O)CC2)nc(-c2ccnc3[nH]ccc23)n1 (configuration not stated) + Cc1cnc(CNC(=O)c2c(=O)c3ccc(N4CCCN(C)CC4)nc3n3c2sc2ccccc23)cn1 | 70.8 |
| Cn1ncnc1[C@H]1c2n[nH]c(=O)c3cc(F)cc(c23)N[C@@H]1c1ccc(F)cc1 + Cc1cnc(CNC(=O)c2c(=O)c3ccc(N4CCCN(C)CC4)nc3n3c2sc2ccccc23)cn1 | 51.4 |

Same assay, conditions: second compound 0.316 µM; first compound 0.0999 µM; stronger effect = lower value; spheroids with HUVEC and MSC

| Structure (SMILES) | viability, T/C [%] |
| --- | --- |
| Cn1ncnc1[C@H]1c2n[nH]c(=O)c3cc(F)cc(c23)N[C@@H]1c1ccc(F)cc1 + Cc1cnc(CNC(=O)c2c(=O)c3ccc(N4CCCN(C)CC4)nc3n3c2sc2ccccc23)cn1 | 47.2 |

Same assay, conditions: second compound 0.316 µM; first compound 0.1 µM; stronger effect = lower value; spheroids with HUVEC and MSC

| Structure (SMILES) | viability, T/C [%] |
| --- | --- |
| COc1ncnc(C2CC2)c1-c1ncc2cnn(Cc3ccc(-c4nc(C(F)(F)F)cn4C(C)C)cc3)c2n1 + Cc1[nH]c2ccc(F)cc2c1-c1nc2c3cccnc3c3ncccc3c2[nH]1 | 111 |
| CC(C)n1c(=O)n(C)c2cnc3cc(F)c(-c4ccc(OCCCN5CCCCC5)nc4)cc3c21 + Cc1cnc(CNC(=O)c2c(=O)c3ccc(N4CCCN(C)CC4)nc3n3c2sc2ccccc23)cn1 | 49 |
| CC1COCCN1c1cc(-c2ccnn2C)c2ccnc(-c3ccn[nH]3)c2n1 (configuration not stated) + Cc1cnc(CNC(=O)c2c(=O)c3ccc(N4CCCN(C)CC4)nc3n3c2sc2ccccc23)cn1 | 20 |
| CC1COCCN1c1cc(C2(S(C)(=N)=O)CC2)nc(-c2ccnc3[nH]ccc23)n1 (configuration not stated) + Cc1cnc(CNC(=O)c2c(=O)c3ccc(N4CCCN(C)CC4)nc3n3c2sc2ccccc23)cn1 | 73 |

Same assay, conditions: second compound 0.316 µM; first compound 0.316 µM; stronger effect = lower value; spheroids with HUVEC and MSC

| Structure (SMILES) | viability, T/C [%] |
| --- | --- |
| COc1ncnc(C2CC2)c1-c1ncc2cnn(Cc3ccc(-c4nc(C(F)(F)F)cn4C(C)C)cc3)c2n1 + Cc1[nH]c2ccc(F)cc2c1-c1nc2c3cccnc3c3ncccc3c2[nH]1 | 106 |
| CC(C)n1c(=O)n(C)c2cnc3cc(F)c(-c4ccc(OCCCN5CCCCC5)nc4)cc3c21 + Cc1cnc(CNC(=O)c2c(=O)c3ccc(N4CCCN(C)CC4)nc3n3c2sc2ccccc23)cn1 | 38.7 |
